Columns and labels:
5-HT1D receptor [1] = target: T1, 5-HT1D receptor (Homo sapiens, UniProt P28221); test: Binding affinity, 3H-serotonin displacement from membranes of cells expressing 5-HT1D; conditions: 100 nM of test compound; 3H-serotonin 1 nM; 60 minute incubation at 22° C.; read-out: percent inhibition of binding of the radioligand at the 5-HT1D receptor
T1 construct: expressed in transfected cells
Experimental: (§1) Selected compounds of the previous examples, as well as reference compounds were evaluated for binding affinity using cell types receptive specifically to 5-HT1D and 5-HT1B ligands. The assay protocol generally entailed the incubation of membranes prepared from cells expressing the 5-HT1D or 5-HT1B subtype of 5-HT receptors with ^3H-serotonin (1 nM for 5-HT1D and 2.5 nM for 5-HT1B). Specific concentrations of the test compound were incubated with the radioligand and the membrane homogenates prepared from the recombinant cells. After a 60 minute incubation at 22° C., the incubation was terminated by vacuum filtration. The filters were washed with buffer and counted for radioactivity using liquid scintillation spectroscopy. The affinity of the test compound for the 5-HT1D receptor is expressed as the amount (in percent) of binding of the radioligand that is inhibited in the presence of 100 nM of test compound. A greater percent inhibition indicates greater affinity for the 5-HT1D receptor.

5-HT1B receptor = target: T2, 5-HT1B receptor (Homo sapiens, UniProt P28222); test: Binding affinity, 3H-serotonin displacement from membranes of cells expressing 5-HT1B; conditions: 3H-serotonin 2.5 nM; 60 minute incubation at 22° C.; 100 nM test compound given only for 5-HT1D; read-out: percent inhibition at the 5-HT1B receptor
T2 construct: expressed in transfected cells
Experimental: as §1

5-HT1D receptor [2] = target: T1, 5-HT1D receptor; test: Functional assay, inhibition of forskolin-stimulated adenyl cyclase (cAMP) in CHO Pro 5 cells; type: cell-based; conditions: CHO cells stably expressing the 5-HT1D receptor; concentrations of 100 nM and 10 μM
Experimental: The 5HT1D and 5HT1B receptor subtypes respond to serotonin and other agonists by reducing adenyl cyclase mediated production of cyclic AMP. Particular test compounds were assayed for their ability to inhibit adenyl cyclase activity using the procedure described below. Forskolin was used to elevate the basal adenyl cyclase activity.
Compounds acting as antagonists at the 5HT1D and 5HT1B receptor subtypes will antagonize the agonist effect of serotonin and thus, will block the serotonin-induced inhibition of forskolin-stimulated adenyl cyclase activity. […]
The culture media of each well was removed, and the wells were washed once with serum free media. […] Basal adenyl cyclase activity was determined from wells with only SFM+IBMX media added.
The cells were then incubated at 37° C. for 30 minutes in a CO2 incubator. […] The pellets were discarded and the supernatants were stored at 4° C. until assayed for cAMP concentration. cAMP content for each extract was determined in duplicate by EIA (enzyme-immunoassay) using the Amersham Biotrak cAMP EIA kit (Amersham RPN 225).
Total inhibition (Io) of forskolin-stimulated adenyl cyclase activity by serotonin was determined as the difference in concentration of cAMP in the forskolin-treated cells (Cf) and serotonin-forskolin treated cells (Cd). […]

T2 sequence (P28222 whole entry): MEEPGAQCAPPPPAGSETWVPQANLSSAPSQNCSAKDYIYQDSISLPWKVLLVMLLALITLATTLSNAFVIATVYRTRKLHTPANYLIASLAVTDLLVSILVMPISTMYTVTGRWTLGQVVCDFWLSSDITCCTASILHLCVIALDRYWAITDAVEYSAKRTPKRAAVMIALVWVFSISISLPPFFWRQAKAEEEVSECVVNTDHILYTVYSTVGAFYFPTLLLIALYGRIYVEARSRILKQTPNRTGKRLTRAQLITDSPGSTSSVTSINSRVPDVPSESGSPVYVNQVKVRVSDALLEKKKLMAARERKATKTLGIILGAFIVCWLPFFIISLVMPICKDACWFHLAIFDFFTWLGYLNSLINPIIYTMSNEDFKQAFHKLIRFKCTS
T1 sequence (P28221 whole entry): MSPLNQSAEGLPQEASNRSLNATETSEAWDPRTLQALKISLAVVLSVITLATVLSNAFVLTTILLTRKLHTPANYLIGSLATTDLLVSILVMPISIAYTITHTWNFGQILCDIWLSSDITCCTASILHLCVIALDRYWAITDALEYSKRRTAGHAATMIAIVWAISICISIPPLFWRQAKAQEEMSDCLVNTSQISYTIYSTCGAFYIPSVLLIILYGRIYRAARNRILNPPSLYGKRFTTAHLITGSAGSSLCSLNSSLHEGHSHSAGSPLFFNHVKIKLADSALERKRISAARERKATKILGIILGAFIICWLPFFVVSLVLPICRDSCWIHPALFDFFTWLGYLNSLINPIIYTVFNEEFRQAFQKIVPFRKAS

C1=C(c2ccc3[nH]cc(C4=CCN5CCCC5C4)c3c2)CCSC1 [Example 8e, 5-(5,6-Dihydro-2H-thiopyran-4-yl)-3-[(8a-R,S)-1,2,3,5,8,8a-hexahydro-7-indolizinyl]-1H-indole]
inhibition at 0.1 µM (5-HT1D receptor [1]): > 75% | inhibition at 0.1 µM (5-HT1B receptor): < 50%

C1=C(c2ccc3[nH]cc(C4=CC5CCCN5CC4)c3c2)CCOC1 [Example 8b, 5-(5,6-Dihydro-2H-pyran-4-yl)-3-[(8a-R,S)-1,2,3,5,6,8a-hexahydro-7-indolizinyl]-1H-indole]
inhibition at 0.1 µM (5-HT1D receptor [1]): > 75%

C1=C(c2ccc3[nH]cc(C4=CCN5CCCC5C4)c3c2)CCOC1 [Example 8a, 5-(5,6-Dihydro-2H-pyran-4-yl)-3-[(8a-R,S)-1,2,3,5,8,8a-hexahydro-7-indolizinyl]-1H-indole]
inhibition at 0.1 µM (5-HT1D receptor [1]): > 75%

COc1ccc2[nH]cc(C3=CCN4CCCC4C3)c2c1 [Example 3b, 5-Methoxy-3-[(8a-R,S)-1,2,3,5,8,8a-hexahydro-7-indolizinyl]-1H-indole]
inhibition at 0.1 µM (5-HT1D receptor [1]): > 75% | inhibition at 0.1 µM (5-HT1B receptor): < 50%

Brc1ccc2[nH]cc(C3=CCN4CCCC4C3)c2c1 [Example 3e, 5-Bromo-3-[(8a-R,S)-1,2,3,5,8,8a-hexahydro-7-indolizinyl]-1H-indole]
inhibition at 0.1 µM (5-HT1D receptor [1]): > 75%

c1csc(-c2ccc3[nH]cc(C4CCN5CCCC5C4)c3c2)c1 [Example 14c, 3-[(7-R,S)(8a-R,S)-Octahydro-7-indolizinyl]-5-(2-thienyl)-1H-indole]
inhibition at 0.1 µM (5-HT1D receptor [1]): > 75% | inhibition at 0.1 µM (5-HT1B receptor): < 50% | forskolin stimulated production of cAMP (agonist activity) (5-HT1D receptor [2]): decrease

c1cc2[nH]cc(C3CCN4CCCC4C3)c2cc1C1CCOCC1 [Example 9g, 5-(Tetrahydropyran-4-yl)-[(7-R,S)(8a-R,S)-octahydro-7-indolizinyl]-1H-indole]
inhibition at 0.1 µM (5-HT1D receptor [1]): > 75%

CC1=C(c2c[nH]c3ccc(C(C)C)cc23)CC2CCCN2C1 [Example 6, 5-Isopropyl-3-[(8a,R,S)-6-methyl-1,2,3,5,8,8a-hexahydro-7-indolizinyl]-1H-indole]
inhibition at 0.1 µM (5-HT1D receptor [1]): > 75% | inhibition at 0.1 µM (5-HT1B receptor): < 50%

C1=C(c2c[nH]c3ccc(-c4cccs4)cc23)CC2CCCN2C1 [Example 3g, 5-(2-Thienyl)-3-[(8a-R,S)-1,2,3,5,8,8a-hexahydro-7-indolizinyl]-1H-indole]
inhibition at 0.1 µM (5-HT1D receptor [1]): > 75%

C1=C(c2ccc3[nH]cc(C4=CCN5CCCC5C4)c3c2)CCCC1 [Example 8c, 5-(Cyclohexen-1-yl)-3-[(8a-R,S)-1,2,3,5,8,8a-hexahydro-7-indolizinyl]-1H-indole]
inhibition at 0.1 µM (5-HT1D receptor [1]): > 75% | inhibition at 0.1 µM (5-HT1B receptor): < 50%

CC(C)c1ccc2[nH]cc(C3=CCN4CCCC4C3)c2c1 [Example 3d, 5-Isopropyl-3-[(8a-R,S)-1,2,3,5,8,8a-hexahydro-7-indolizinyl]-1H-indole]
inhibition at 0.1 µM (5-HT1D receptor [1]): > 75% | inhibition at 0.1 µM (5-HT1B receptor): < 50% | forskolin stimulated production of cAMP (agonist activity) (5-HT1D receptor [2]): decrease

C1=C(c2ccc3[nH]cc(C4=CC5CCCN5CC4)c3c2)CCSC1 [Example 8f, 5-(5,6-Dihydro-2H-thiopyran-4-yl)-3-[(8a-R,S)-1,2,3,5,6,8a-hexahydro-7-indolizinyl]-1H-indole]
inhibition at 0.1 µM (5-HT1D receptor [1]): > 75%

C1=C(c2c[nH]c3ccc(OC4CCCCC4)cc23)CC2CCCN2C1 [Example 3f, 5-Cyclohexyloxy-3-[(8a-R,S)-1,2,3,5,8,8a-hexahydro-7-indolizinyl]-1H-indole]
inhibition at 0.1 µM (5-HT1D receptor [1]): > 75%

OC1(c2ccc3[nH]cc(C4=CCN5CCCC5C4)c3c2)CCCCC1 [Example 3h, 1-{[3-(8a-R,S)-1,2,3,5,8,8a-Hexahydro-7-indolizinyl]-1H-indol-5-yl}cyclohexanol]
inhibition at 0.1 µM (5-HT1D receptor [1]): > 75% | inhibition at 0.1 µM (5-HT1B receptor): < 50%

C1=C(c2ccc3[nH]cc(C4=CC5CCCN5CC4)c3c2)CCCC1 [Example 8d, 5-(Cyclohexen-1-yl)-3-[(8a-R,S)-1,2,3,5,6,8a-hexahydro-7-indolizinyl]-1H-indole]
inhibition at 0.1 µM (5-HT1D receptor [1]): > 75%

Cc1ccc2[nH]cc(C3=CCN4CCCC4C3)c2c1 [Example 3c, 5-Methyl-3-[(8a-R,S)-1,2,3,5,8,8a-hexahydro-7-indolizinyl]-1H-indole]
inhibition at 0.1 µM (5-HT1D receptor [1]): > 75% | inhibition at 0.1 µM (5-HT1B receptor): < 50%

CC(C)c1ccc2[nH]cc(C3CCN4CCCC4C3)c2c1 (single isomer, unassigned) [Example 9c, 5-Isopropyl-3-[(7R or 7S)(8a-R,S)-octahydro-7-indolizinyl]-1H-indole]
inhibition at 0.1 µM (5-HT1D receptor [1]): > 75% | inhibition at 0.1 µM (5-HT1B receptor): < 50%

OC1(c2ccc3[nH]cc(C4=CCN5CCCC5C4)c3c2)CCOCC1 [Example 7, 4-{[3-(8a-R,S)-1,2,3,5,8,8a-Hexahydro-7-indolizinyl]-1H-indol-5-yl}tetrahydro-2H-pyran-4-ol]
inhibition at 0.1 µM (5-HT1D receptor [1]): > 75% | inhibition at 0.1 µM (5-HT1B receptor): < 50%
